Measurements from patent publication US20110039763A1, “TARGETED ANTIMICROBIAL MOIETIES” (C3 JIAN, INC., priority 2009, published 2011).

Columns and labels:
microorganisms [1] = assay: Peptide activities: targeting/binding, antimicrobial, growth or phenotype altering (Tables 7, 8); format: cell-based; conditions: peptides having multiple activities
From the text: In certain embodiments, peptides described herein can have multiple activities. Thus for example, a peptide can have both binding/targeting activity and antimicrobial activity. Such peptides can be used, e.g., in a chimeric construct, for any or all of these properties. Thus, for example, a peptide designated “B” in Table 8 can be used as a targeting peptide. If it is also designated G or M it can also be used for antimicrobial activity.
Table 8. Peptides Having Multiple Activities. B: Targeting/Binding Activity; M: Antimicrobial Activity; G: GROWTH or Phenotype Altering.

microorganisms [2] = assay: Morphology, biofilm and growth disrupting peptides (Table 5); format: cell-based; parameters: key: A: Peptide aggregates; B: Less hyphal formation; Clumps; Diffuse clumps and small polyps; F: Diffuse growth; H: Thin; I: Growth inhibition; Microcolony formation; Rippled; Small polyps; Thick; W: Halo formation on top, microlonies on bottom
From the text: In certain embodiments peptides that induce alterations in phenotype or other biological activities can also be used as antimicrobial effector moieties.

| Substance | Activities (microorganisms [1]) | Organism, effect: C. jeikeium (microorganisms [2]) | Organism, effect: M. luteus (microorganisms [2]) | Organism, effect: MRSA (microorganisms [2]) | Organism, effect: S. epidermidis (microorganisms [2]) | Organism, effect: C. albicans (microorganisms [2]; C. albicans) | Organism, effect: C. jejuni (microorganisms [2]) | Organism, effect: E. coli (microorganisms [2]; E. coli) | Organism, effect: E. faecalis (microorganisms [2]; E. faecalis) | Organism, effect: S. pneumoniae (microorganisms [2]) | Organism, effect: B. subtilis (microorganisms [2]) | Organism, effect: P. aeruginosa (microorganisms [2]) |
| --- | --- | --- | --- | --- | --- | --- | --- | --- | --- | --- | --- | --- |
| PF-012: peptide having multiple activities (WRGPNTEAGGKSANNIVQVGGAPT; Peptide with targeting and/or antimicrobial activity) | G B | C. jeikeium (A) | M. luteus (C) | MRSA (R) | S. epidermidis (S) |  |  |  |  |  |  |  |
| PF-022: peptide having multiple activities (MINELKNKNSGIMNNYVVTKESKL; Peptide with targeting and/or antimicrobial activity) | G B | C. jeikeium (A) | M. luteus (A) | MRSA (R) | S. epidermidis (D) |  |  |  |  |  |  |  |
| PF-030: peptide having multiple activities (MTCHQAPTTTHQSNMA; Peptide with targeting and/or antimicrobial activity) | G B | C. jeikeium (C) | M. luteus (C) | MRSA (R) | S. epidermidis (D) |  |  |  |  |  |  |  |
| PF-042: peptide having multiple activities (LLLSYFRYTGALLQSLF; Peptide with targeting and/or antimicrobial activity) | G B | C. jeikeium (S) | M. luteus (C) | MRSA (R) | S. epidermidis (D) |  |  |  |  |  |  |  |
| PF-057: peptide having multiple activities (TMIVISIPRFEEYMKARHKKWM; Peptide with targeting and/or antimicrobial activity) | G B | C. jeikeium (A) | M. luteus (C) | MRSA (M) | S. epidermidis (D) | C. albicans (A) | C. jejuni (D) | E. coli (M) | E. faecalis (A) | S. pneumoniae (R) |  |  |
| PF-063: peptide having multiple activities (IAAIIVLVLFQKGLLQIFNWILIQLQ; Peptide with targeting and/or antimicrobial activity) | G B | C. jeikeium (D) | M. luteus (R) | MRSA (M) | S. epidermidis (R) |  | C. jejuni (D) |  |  | S. pneumoniae (D) | B. subtilis (C) | P. aeruginosa (A) |
| PF-067: peptide having multiple activities (DLIVKVHICFVVKTASGYCYLNKREAQAAI; Peptide with targeting and/or antimicrobial activity) | G B | C. jeikeium (D) | M. luteus (R) | MRSA (M) | S. epidermidis (D) |  | C. jejuni (D) |  |  | S. pneumoniae (D) | B. subtilis (C) | P. aeruginosa (A) |
| PF-076: peptide having multiple activities (chain 1 LYQYELLSKEEYLKCTLIINQRRNEQK; chain 2 LYQYELLSKEEYLKCTLIINQRRNEQK; Peptide with targeting and/or antimicrobial activity) | G B | C. jeikeium (A) | M. luteus (A) | MRSA (R) | S. epidermidis (S) |  |  |  |  |  |  |  |
